Results reported in US20030153538A1, “Antitumor agent” (The Nisshin OilliO, Ltd., priority 2000, published 2003).

Tested on: B-16 melanoma cells
Assay: Tests for tumor cell-proliferation-inhibitory effect and tumor cell-extinction (cell growth rate from viable cell count)
Type: cell-based
Details: for tumor cell-killing effect (in words): at not less than 2 times the concentration required for proliferation inhibition; for tumor cell-proliferation-inhibitory effect (in words): summary of Table 1
Protocol: The tumor cell-proliferation-inhibitory effect and the tumor cell-killing or extinction effect can be determined according to the following method using B-16 melanoma cells.
More specifically, B-16 melanoma cells are inoculated in each well of a 6-well plate in a desired amount, followed by allowing the plate to stand at 37° C. and 5% carbon dioxide concentration to thus cultivate the cells, adding a sample solution to be tested (maslinic acid, erythrodiol, ursolic acid, uvaol, betulinic acid, betulin and physiologically acceptable salts thereof or derivatives thereof) to each well in an amount sufficient for achieving a desired concentration, on the next day or after 5 days from the initiation of the cultivation, determination of viable cell count on the 6th day after the initiation of the cultivation and calculation of the cell growth rate based on the viable cell count to thus evaluate the tumor cell-proliferation-inhibitory effect and the tumor cell-killing effect.
Tests for determining the tumor cell-proliferation-inhibitory effect and the tumor cell-killing effect were conducted according to the following method. To a 6-well plate, a culture medium was dispensed in an amount of 2 mL/well, B-16 melanoma cells were then inoculated in a desired quantity and thereafter the melanoma cells were cultivated by allowing the plate or the culture medium to stand at 37° C. and a carbon dioxide concentration of 5%. On the following day, a test sample solution prepared was added to and admixed with the content of each well to a desired concentration and the cultivation of the melanoma cells was continued. The culture medium was then exchanged on the 5th day from the initiation of the cultivation and the test sample solution was again added to each well. On the next day, the culture medium was removed to recover the cultivated melanoma cells, followed by washing the cells with PBS (phosphate buffered saline), determination of the viable cell count, and then calculation of the cell growth rate according to the following equation 1. The tumor cell-proliferation-inhibitory effect and the tumor cell-killing effect of each test sample were evaluated on the basis of the cell growth rate thus determined.
Cell Growth Rate (%)=(A/B)×100
As comparative examples, oleanolic acid, β-amyrin, α-amyrin and lupeol were added to the culture medium to thus determine and evaluate the cell growth rate by the same method used above.

[1] = 5 ppm, viable cell count vs control on 6th day
[2] = 15 ppm, viable cell count vs control on 6th day
[3] = 25 ppm, viable cell count vs control on 6th day
[4] = 50 ppm, viable cell count vs control on 6th day
[5] = 20 ppm, viable cell count vs control on 6th day
[6] = 30 ppm, viable cell count vs control on 6th day
[7] = 40 ppm, viable cell count vs control on 6th day

| Structure (SMILES) | Cell Growth Rate [1] [%] | Cell Growth Rate [2] [%] | Cell Growth Rate [3] [%] | Cell Growth Rate [4] [%] | activity at 15 ppm (Mus musculus, B16, 144 h, 15 ppm, viable cell count vs control on 6th day, read-out: Cell Growth Rate) [%] | activity at 20 ppm (Mus musculus, B16, 144 h, 20 ppm, viable cell count vs control on 6th day, read-out: Cell Growth Rate) [%] | activity at 25 ppm (Mus musculus, B16, 144 h, 25 ppm, viable cell count vs control on 6th day, read-out: Cell Growth Rate) [%] | activity at 30 ppm (Mus musculus, B16, 144 h, 30 ppm, viable cell count vs control on 6th day) [%] | activity at 40 ppm (Mus musculus, B16, 144 h, 40 ppm, viable cell count vs control on 6th day) [%] | activity at 50 ppm (Mus musculus, B16, 144 h, 50 ppm, viable cell count vs control on 6th day) [%] | tumor cell-killing effect (in words) | tumor cell-proliferation-inhibitory effect (in words) | Cell Growth Rate [5] [%] | Cell Growth Rate [6] [%] | Cell Growth Rate [7] [%] |
| --- | --- | --- | --- | --- | --- | --- | --- | --- | --- | --- | --- | --- | --- | --- | --- |
| CCOC(=O)[C@]12CC[C@@H](C)[C@H](C)[C@H]1C1=CC[C@@H]3[C@@]4(C)CC[C@H](O)C(C)(C)[C@@H]4CC[C@@]3(C)[C@]1(C)CC2 [Comp. Of Synthetic Ex. 6, ursolic acid ethyl ester] | 79 | 72 | 58 | 47 | – | – | – | – | – | – | – | – | – | – | – |
| CC(=O)OC[C@]12CC[C@@H](C)[C@H](C)[C@H]1C1=CC[C@@H]3[C@@]4(C)CC[C@H](OC(C)=O)C(C)(C)[C@@H]4CC[C@@]3(C)[C@]1(C)CC2 [Comp. Of Synthetic Ex. 7, 3,28-O-di-acetyl-uvaol] | 85 | 71 | 54 | 42 | – | – | – | – | – | – | – | – | – | – | – |
| C=C(C)[C@@H]1CC[C@]2(C(=O)OCC)CC[C@]3(C)[C@H](CC[C@@H]4[C@@]5(C)CC[C@H](O)C(C)(C)[C@@H]5CC[C@]43C)[C@@H]12 [Comp. Of Synthetic Ex. 8, betulinic acid ethyl ester] | 96 | 81 | 69 | 53 | – | – | – | – | – | – | – | – | – | – | – |
| C=C(C)[C@@H]1CC[C@]2(COC(C)=O)CC[C@]3(C)[C@H](CC[C@@H]4[C@@]5(C)CC[C@H](OC(C)=O)C(C)(C)[C@@H]5CC[C@]43C)[C@@H]12 [Comp. Of Synthetic Ex. 9, 3,28-O-di-acetyl-betulin] | 100 | 79 | 68 | 60 | – | – | – | – | – | – | – | – | – | – | – |
| C=C(C)[C@@H]1CC[C@]2(C)CC[C@]3(C)[C@H](CC[C@@H]4[C@@]5(C)CC[C@H](O)C(C)(C)[C@@H]5CC[C@]43C)[C@@H]12 [Lupeol, lupeol, reference compound] | – | – | – | – | 100 | 100 | 100 | 100 | 100 | 100 | not observed | do not possess any tumor cell-proliferation-inhibitory effect at all | – | – | – |
| C[C@H]1[C@H](C)CC[C@]2(C)CC[C@]3(C)C(=CC[C@@H]4[C@@]5(C)CC[C@H](O)C(C)(C)[C@@H]5CC[C@]43C)[C@H]12 [α-Amyrin, α-amyrin, reference compound] | – | 100 | 100 | 100 | – | – | – | – | – | – | not observed | do not possess any tumor cell-proliferation-inhibitory effect at all | 100 | 100 | 100 |
| CC1(C)CC[C@]2(C)CC[C@]3(C)C(=CC[C@@H]4[C@@]5(C)CC[C@H](O)C(C)(C)[C@@H]5CC[C@]43C)[C@@H]2C1 [β-Amyrin, β-amyrin, reference compound] | – | 100 | 100 | 100 | – | – | – | – | – | – | not observed | do not possess any tumor cell-proliferation-inhibitory effect at all | 100 | 100 | 100 |
